Reference: patent publication US8748177B2, “Compositions for proliferation of cells and related methods” (The Hospital for Sick Children, priority 2008, dated 2014)
“Also recorded” adds a separate entry of the source. Counter-ions that a name gives are not always drawn.

Key:
[1] = tested on: human SKPs; assay: Dose-response curves for proliferation of human SKPs in presence of EGF and FGF2; format: cell-based; settings: for proliferation of human SKPs: 100 nM, compared to cells grown in the absence of the agent
Method: The proliferative effects of MG 624 on SKPs and neuroblastoma tumor initiating cells have also been studied in detail. Dose response curves for proliferation of human SKPs and neuroblastoma tumor initiating cells in response to MG 624 were generated in the presence of EGF and FGF2. At 200 nM MG 624, SKP cell proliferation is enhanced (FIG. 5).
To characterize enhancement of proliferation brought about by the agents identified above, dose-response curves for MG624, GSK3β, pramoxine, kaempferol, and alprostadil in presence of EGF and FGF2 were generated (FIGS. 6A-6E).

[2] = tested on: human SKPs; assay: In vitro sphere assay, human SKPs from foreskin; format: cell-based; settings: treated for seven days, Hoechst stain, compared to vehicle control
Method: (§1) FIG. 7 is a schematic illustration of the in vitro sphere assay. SKPs were isolated from mouse back, whisker and human foreskin and allowed to grow in spheres. After 2-3 passages, spheres were dissociated and 3000 cells were plated in each well of a 96-well plate. Cells were then treated in triplicate with different concentrations of drugs or only with vehicle DMSO. Drugs were applied again on day 3 and the number of spheres was analyzed on day 7.
as §1, with “SKPs” for “FIG. 7 is a schematic illustration of the in vitro sphere assay. SKPs”, “whisker,” for “whisker”, “96 well” for “96-well”, “or” for “or only”, “(DMSO) only.” for “DMSO.”, “and” for “and the”
Sphere size is […] with, and is thus a measure of, cell proliferation. SKPs were isolated from human foreskin and allowed to grow in spheres. After 2-3 passages, spheres were dissociated and 3000 cells were plated in each well of a 96 well plate. Cells were then treated in triplicate with (a) 100 nM of a single drug, (b) a combination of drugs in which each drug is present at a concentration of 100 nM, or (c) vehicle (DMSO). Drugs were applied again on day 3. To assess how well cells proliferate within the sphere, the size of spheres was analyzed on day 7. […]

[3] = tested on: Sox2-EGFP mice; assay: Single agent topical application, hair length in shaved Sox2-EGFP mice; format: in vivo, mouse; settings: for hair length distribution histogram relative to control group: day 23, classes of 200 μm; for hair length: topical daily, days 16, 19 and 23, compared to control mice
Method: Sox2-EGFP mice, 7-8 weeks old, were shaved on the dorsal back to synchronize the hair cycle, and kaempferol (Kae) or alprostadil (Alp) was topically applied daily. Control mice were treated with vehicle only. At days 16, 19, and 23, about 30-40 hairs were plucked from each mouse, and their length was measured. Three or four mice were used in each group. […] Hair length promoted by the compounds on day 23 is shown in distribution histograms relative to the control group. Hair length was binned in classes of 200 μm, and each class was expressed as a percentage of total hair population.

[4] = tested on: C57BL/6 mice; assay: Topical application to depilated dorsal skin: hair length, dermal thickness, anagen follicles, follicle density; format: in vivo, mouse; settings: for hair length distribution histogram relative to control group: day 23, topical once daily; for anagen hair cycle (anagen hair follicles by morphology) / follicle density (number of follicles per mm): topical once daily for 3 weeks
Method: We tested compounds to determine whether their topical application could induce anagen hair cycle and follicle density. Briefly, seven-week old C57BL/6 mice were used. […] Mice were induced to enter anagen phase by being depilated in the dorsal region. Compounds ([…]) were topically applied onto the dorsal skin once daily for 3 weeks. Three mice were used for each compound group. Approximately 30 hairs from each mouse were plucked at specific days (day 16, day 19, and day 23) and the hair length was measured. Additionally, skin samples for cryosectioning were obtained from the treated dorsal region of each mouse.
All compounds were resuspended in vehicle solution (1.2 propanediol:EtOH:H20 (40:20:40)). Compound concentrations were as follows: alprostadil 40 μg/mL; kaempferol 28.6 μg/mL; pramoxine 329.8 μg/mL; MG 624 45.13 μg/mL. Also tested was Gold Bond topical anesthetic cream. Latanoprost (150 μg/mL) was used as a positive control and AKT inhibitor A443654 (100 μM) was used as a negative control.
FIG. 19 is a series of photomicrographs and graphs showing that topical application of the indicated compounds induces dermal thickness. Dorsal skin of animals topically treated with compounds described above, then isolated, cryosectioned and stained with hematoxylin and eosin. Dermal thickness was manually measured randomly through the slices. A mean of three measurements through the slice were performed and about 20-30 slices were analyzed for each mouse within each compound group.
FIG. 20 is a series of photomicrographs and graphs showing that alprostadil, kaempferol, pramoxine, or MG 624 induces anagen hair cycle and follicle density. The density is expressed as number of follicles per mm whereas the anagen hair follicles are determined by morphology.

[5] = tested on: xenograft neuroblastoma tumors; assay: Tumor formation, xenograft neuroblastoma tumors in vivo; set-up: species or system human; settings: FIG. 4C

Row | SMILES | proliferation of human SKPs [1] | size of human SKP spheres [2] | hair length distribution histogram relative to control group [3] | hair length [3] | hair length distribution histogram relative to control group [4] | anagen hair cycle (anagen hair follicles by morphology) [4] | follicle density (number of follicles per mm) [4] | SKP proliferation ([1]; 200 nM) | tumor formation [5]
1 | CCCCC[C@H](O)/C=C/[C@H]1[C@H](O)CC(=O)[C@@H]1CCCCCCC(=O)O [Alprostadil, alprostadil] | enhanced proliferation | increase the size of human SKP spheres | shift to longer hair lengths | increase in hair length | shift versus longer hair length | induces | induces | – | –
2 | O=c1c(O)c(-c2ccc(O)cc2)oc2cc(O)cc(O)c12 [Kaempferol] | enhanced proliferation | increase the size of human SKP spheres | shift to longer hair lengths | increase in hair length | shift versus longer hair length | induces | induces | – | –
3 | CC[N+](CC)(CC)CCOc1ccc(/C=C/c2ccccc2)cc1.[I-] [MG 624] | enhanced proliferation | – | – | – | – | induces | induces | enhanced; also recorded: increased | –
4 | CCCCOc1ccc(OCCCN2CCOCC2)cc1 [Pramoxine hydrochloride, Pramoxine] | enhanced proliferation | – | – | – | – | induces | induces | – | –
5 | CC[C@]1(O)C[C@@H]2CN(CCc3c([nH]c4ccccc34)[C@@](C(=O)OC)(c3cc4c(cc3OC)N(C)[C@H]3[C@@](O)(C(=O)OC)[C@H](OC(C)=O)[C@]5(CC)C=CCN6CC[C@]43[C@@H]65)C2)C1 [vinblastine] | – | – | – | – | – | – | – | – | inhibition of tumor formation
